Measurements reported in patent publication EP0195397A1, “m-Cyanophenethanolamines as animal growth promoters and antilipogenic agents” (AMERICAN CYANAMID COMPANY, priority 1985, dated 1986).
Where two headings read alike, the source gives them in different places.

How the values were obtained:
[1] = biological target: T1, Beta-1 adrenergic receptor membranes (Meleagris gallopavo, UniProt P07700); test: Beta-1 adrenergic activity by (H3) dihydroalprenolol radioligand binding to receptor membranes; set-up: species or system turkey
T1 construct: Freshly drawn heparinized whole blood from turkeys and rats is centrifuged; from tissue; host or cells: erythrocyte membranes from freshly drawn turkey blood
T1 sequence (P07700 whole entry): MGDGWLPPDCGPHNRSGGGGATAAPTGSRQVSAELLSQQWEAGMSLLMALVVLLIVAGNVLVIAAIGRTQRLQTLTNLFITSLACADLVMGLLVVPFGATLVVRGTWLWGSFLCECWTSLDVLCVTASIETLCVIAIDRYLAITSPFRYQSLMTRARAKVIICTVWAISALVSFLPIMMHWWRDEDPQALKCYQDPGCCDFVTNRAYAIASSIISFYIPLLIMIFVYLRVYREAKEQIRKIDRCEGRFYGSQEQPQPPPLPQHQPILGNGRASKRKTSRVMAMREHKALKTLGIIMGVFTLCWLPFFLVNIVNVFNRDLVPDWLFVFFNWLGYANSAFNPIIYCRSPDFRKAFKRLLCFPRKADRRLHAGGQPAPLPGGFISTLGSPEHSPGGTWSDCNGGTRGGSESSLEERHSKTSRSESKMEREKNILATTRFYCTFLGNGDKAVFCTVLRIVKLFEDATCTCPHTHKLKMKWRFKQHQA
Experimental: Beta-1 adrenergic activity of experimental compounds is identified by radioactive ligand-binding studies by using beta adrenergic receptor membranes and adrenergic antagonist (H3) dihydroalprenolol (DHA). Binding of (H3) DHA to membrane fractions is assayed by filtration on glass fiber filters. Specific binding is defined as total radioactivity bound minus nonspecific bound radioactivity, i.e., binding in the presence of 100 µM non-radioactive DHA. Results are expressed as the concentrations of the compound required to displace […] radioactive ligand from binding of beta adrenergic receptors (K-50).
In these tests, beta adrenergic receptor membranes are incubated with radioactive dihydroalprenolol (H3 DHA) and experimental compounds. The bound radio- ligand is separated by filtration on glass fiber filters and counted by scintillation counter.
Beta-1 adrenergic receptor membranes are isolated from turkey and rat erythrocytes respectively using the procedures of: • Hancock, A., DeLean, A., Lefkowitz, R. J. Mol. Pharmacol. 16:1, 1979; • DeLean, A, Hancock A., Lefkowitz, R. J. Mol. Pharmacol. 21:5, 1979; or • Lefkowitz, R. J., Stadel, J. M., and Caron, M. G. Ann. Rev. Biochem 52:157, 1983.
Freshly drawn heparinized whole blood from turkeys and rats is centrifuged for five minutes ([…]). The plasma is withdrawn; the remaining erythrocytes are suspended in 150mM sodium chloride solutions and centrifuged. The cells are resuspended and centrifuged twice more. […] The protein concentration of receptor membranes is determined by the biuret method.
To duplicate incubation, tubes are added 200 µl suspended membranes (200 µg protein), 25 µl of compound in solution or buffer and 25 µl (H3) dihydroalprenolol ([…]). […] The filters are rinsed three times with 5 mL of cold buffer (145 mM NaCl, 1 mM ethylenediaminetetraacetic acid, and 10 mM tris, pH 7.4) and subsequently counted by liquid scintillation counter in 10 mL of aquasol. […]

[2] = Evaluation of test compounds as animal growth promoters and antilipogenic agents - mouse test; type: in vivo, CFI female mice; conditions: 12-day test period; for Gain (grams): weight gain per cage of ten mice; for % Reduction in fat pad weight vs controls: right uterine fat pad, minus sign = reduction
Experimental: CFI female mice from Carworth Farms are received when they are six-weeks old. They are housed ten to a cage in air-conditioned rooms (22 °C to 25 °C) with automatically-controlled lights, 14 hours on and ten hours off. The basal diet used in these studies is Purina Laboratory Chow (see description below) which is supplied ad libitum. The following is a description of the diet to which the growth-promoting compounds were added. Thirteen days after arrival, the mice are weighed in groups of ten and assigned at random to the different treatments. Each of the treatments is tested in three replicates, i.e., in three cages of ten mice each. There are ten cages of ten control mice each. Drugs are mixed in the diet at the dosage level indicated. Feed and water are offered ad libitum for a 12-day test period. Feed spilled is collected during the test period. At the end of the test period, the collected feed is weighed, and the mean feed consumption per cage of ten mice is determined for each treatment. The mice are weighed as a group of ten, and the weight gain determined. The mice are sacrificed by cervical dislocation. The right uterine fat pad of each mouse is removed. The fat pads for each cage of ten mice are weighed as a unit. Reduction in fat pad weights of animals is generally indicative of a reduction of total body fat of the treated animals.

[3] = concentration required to displace 50% radioactive ligand ((H3) DHA), 23°C, one hour, read-out: β1 K-50

Compound	IC50 [1] [µM]	Gain (grams) ([2]; 3 ppm in diet)	Gain (grams) ([2]; 6 ppm in diet)	Gain (grams) ([2]; 12 ppm in diet)	Gain (grams) ([2]; 25 ppm in diet)	Gain (grams) ([2]; 50 ppm in diet)	% Reduction in fat pad weight vs controls ([2]; 100 ppm in diet) [%]	Gain (grams) ([2]; 100 ppm in diet)	Gain (grams) ([2]; 200 ppm in diet)	% Reduction in fat pad weight vs controls ([2]; 25 ppm in diet)	% Reduction in fat pad weight vs controls ([2]; 50 ppm in diet) [%]	IC50 [1, 3] [µM]
CC(C)(C)NCC(O)c1cc(Cl)c(N)c(Cl)c1 (stereo not drawn) [Clenbuterol, reference compound]	0.977	–	–	–	–	–	–	–	–	–	–	–
CC(C)NCC(O)c1cccc(C#N)c1 (stereo not drawn) [the 2nd table drawing]	–	32.4	23.4	29.4	37.1	37.4	-9.1	37.3	39.0	–	–	–
CC(C)(C)NCC(O)c1cccc(C#N)c1 (stereo not drawn) [the 3rd table drawing]	–	29.3	37.4	30.5	35.9	41.1	-16.9	36.1	33.2	+5.2%	-11.6	–
CC(C)NCC(O)c1cccc(C#N)c1 (stereo not drawn) [the 4th table, row 4 drawing]	–	–	–	–	–	–	–	–	–	–	–	> 100
CC(C)(C)NCC(O)c1cccc(C#N)c1 (stereo not drawn) [the 4th table, row 5 drawing]	–	–	–	–	–	–	–	–	–	–	–	> 100
